Reference: the Kinase Knowledgebase extract (Sharma et al. 2016)

The compounds below were run against CDK2 (UniProt P24941) (assay: Enzyme Assay).

IC50 | SMILES
< 20 µM | COc1ccccc1CNC(=O)c1n[nH]cc1NC(=O)c1c(F)cccc1F
< 20 µM | Cc1cc(CNC(=O)c2n[nH]cc2NC(=O)c2c(F)cccc2F)no1
< 20 µM | O=C(NCC1CCCO1)c1n[nH]cc1NC(=O)c1c(F)cccc1F (stereo unspecified)
< 20 µM | O=C(NCc1ccncc1)c1n[nH]cc1NC(=O)c1c(F)cccc1F
< 20 µM | Cc1nn(C)c(C)c1CNC(=O)c1n[nH]cc1NC(=O)c1c(F)cccc1F

Target: CDK2 (UniProt P24941)
Assay: Enzyme Assay
Remark: another data set of the same source

SMILES | IC50
CN1CCC(NC(=O)c2n[nH]cc2NC(=O)c2c(Cl)cccc2Cl)CC1 | < 20 µM
CC(C)(C)OC(=O)N1CCC(NC(=O)c2n[nH]cc2NC(=O)c2ccccc2)CC1 | < 20 µM
O=C(Nc1c[nH]nc1C(=O)NC1CCNCC1)c1ccc(Cl)cc1 | < 20 µM
COc1cccc(F)c1C(=O)Nc1c[nH]nc1C(=O)NC1CCN(C(=O)OC(C)(C)C)CC1 | < 20 µM
COCCN1CCC(NC(=O)c2n[nH]cc2NC(=O)c2c(Cl)cccc2Cl)CC1 | < 20 µM
CC(C)(C)C1CCC(NC(=O)c2n[nH]cc2NC(=O)c2cc(F)cc(F)c2)CC1 (stereo unspecified) | < 750 µM
O=C(NC1CCNCC1)c1n[nH]cc1NC(=O)c1c(Cl)cncc1Cl | < 20 µM
O=C(Nc1ccccc1)Nc1c[nH]nc1C(=O)N[C@H]1CC[C@H](O)CC1 | < 20 µM
CC(C)(C)C1CCC(NC(=O)c2n[nH]cc2NC(=O)c2ccccc2)CC1 (stereo unspecified) | < 750 µM
CN1CCC(NC(=O)c2n[nH]cc2NC(=O)c2cccc3c2OCCO3)CC1 | < 20 µM
O=C(N[C@H]1CC[C@H](O)CC1)c1n[nH]cc1NC(=O)N1CCOCC1 | < 750 µM
Cc1onc(-c2ccccc2)c1C(=O)Nc1c[nH]nc1C(=O)NC1CCNCC1 | < 750 µM
O=C(N[C@H]1CC[C@H](O)CC1)c1n[nH]cc1NC(=O)c1c(F)cccc1Cl | < 20 µM
CC(C)(C)OC(=O)N1CCC(NC(=O)c2n[nH]cc2NC(=O)c2ccc(F)cc2)CC1 | < 20 µM
O=C(N[C@H]1CC[C@@H](NC2CCOCC2)CC1)c1n[nH]cc1NC(=O)c1c(F)cccc1F | < 20 µM
O=C(Nc1c[nH]nc1C(=O)NC1CCNCC1)c1cc(F)cc(F)c1 | < 20 µM
O=C(NCc1ccccc1)Nc1c[nH]nc1C(=O)N[C@H]1CC[C@H](O)CC1 | < 750 µM
O=C(Nc1c[nH]nc1C(=O)NCC1CC1)c1cccc2c1OCCO2 | < 20 µM
CN1CCC(NC(=O)c2n[nH]cc2NC(=O)c2ccccc2Cl)CC1 | < 20 µM
O=C(Nc1c[nH]nc1C(=O)N[C@H]1CC[C@H](O)CC1)c1cccc2c1OCCO2 | < 20 µM
O=C(Nc1c[nH]nc1C(=O)NC1CCNCC1)c1ccccc1 | < 750 µM
CC(C)(C)C1CCC(NC(=O)c2n[nH]cc2NC(=O)c2ccc(OC(F)F)cc2)CC1 (stereo unspecified) | < 750 µM
CO[C@H]1CC[C@H](NC(=O)c2n[nH]cc2NC(=O)c2c(Cl)cccc2Cl)CC1 | < 20 µM
CN1CCC(NC(=O)c2n[nH]cc2NC(=O)c2cc(Cl)ccc2Cl)CC1 | < 20 µM
O=C(Nc1c[nH]nc1C(=O)NC1CCNCC1)c1cc(-c2ccccc2)cs1 | < 20 µM

SMILES | IC50
CC(C)(C)C1CCC(NC(=O)c2n[nH]cc2NC(=O)c2ccc(CN3CCCC3)o2)CC1 (stereo unspecified) | < 20 µM
Cc1ccc(C(=O)Nc2c[nH]nc2C(=O)NC2CCN(C)CC2)cc1 | < 20 µM
CCOc1ccccc1C(=O)Nc1c[nH]nc1C(=O)NC1CCNCC1 | < 20 µM
O=C(Nc1c[nH]nc1C(=O)NCC1CC1)c1ccc(N2CCOCC2)cc1Cl | < 20 µM
COc1cscc1C(=O)Nc1c[nH]nc1C(=O)N[C@H]1CC[C@H](O)CC1 | < 20 µM
O=C(Nc1c[nH]nc1C(=O)NC1CCNCC1)c1ccc(F)cc1 | < 750 µM
O=C(N[C@H]1CCCNC1)c1n[nH]cc1NC(=O)c1c(Cl)cccc1Cl | < 20 µM
CN1CCC(NC(=O)c2n[nH]cc2NC(=O)c2cccc(Cl)c2Cl)CC1 | < 20 µM
CC(C)(C)C1CCC(NC(=O)c2n[nH]cc2NC(=O)c2ccc(Cl)cc2)CC1 (stereo unspecified) | < 750 µM
CN1CCC(NC(=O)Nc2c[nH]nc2C(=O)N[C@H]2CC[C@H](O)CC2)CC1 | < 20 µM
CN1CCN(c2cc(F)cc(C(=O)Nc3c[nH]nc3C(=O)NC3CCCCC3)c2)CC1 | < 20 µM
CC(C)(C)NC(=O)Nc1c[nH]nc1C(=O)NCC1CC1 | < 20 µM
O=C(Nc1c[nH]nc1C(=O)NC1CCNCC1)c1ccccc1OC(F)F | < 20 µM
CC(C)(C)C1CCC(NC(=O)c2n[nH]cc2NC(=O)c2ccc(CN3CCOCC3)o2)CC1 (stereo unspecified) | < 20 µM
CN1CCC(C(=O)Nc2c[nH]nc2C(=O)NCC2CC2)CC1 | < 20 µM
O=C(Nc1c[nH]nc1C(=O)NC1CCNCC1)c1ccccc1OCc1ccccc1 | < 20 µM
O=C(Nc1c[nH]nc1C(=O)NC1CCNCC1)c1ccccc1Br | < 20 µM
O=C(Nc1c[nH]nc1C(=O)NC1CCNCC1)c1ccc(OC(F)F)cc1 | < 20 µM
COc1ccc(F)cc1C(=O)Nc1c[nH]nc1C(=O)NC1CCN(C)CC1 | < 20 µM
CC(C)(C)CNC(=O)Nc1c[nH]nc1C(=O)N[C@H]1CC[C@H](O)CC1 | < 20 µM
COc1ccccc1C(=O)Nc1c[nH]nc1C(=O)NC1CCNCC1 | < 20 µM
CC(C)(C)C1CCC(NC(=O)c2n[nH]cc2NC(=O)c2ccc(F)cc2)CC1 (stereo unspecified) | < 750 µM
O=C(Nc1c[nH]nc1C(=O)N[C@H]1CC[C@H](O)CC1)Nc1c(F)cccc1F | < 20 µM
CC(C)(C)OC(=O)N1CCC(NC(=O)c2n[nH]cc2NC(=O)c2c(F)cc(F)cc2F)CC1 | < 20 µM
O=C(NC1CCNCC1)c1n[nH]cc1NC(=O)c1c(F)cc(F)cc1F | < 20 µM

Results, then the compound that gave them:

IC50 | SMILES
< 20 µM | CC(C)N1CCC(NC(=O)c2n[nH]cc2NC(=O)c2c(F)cccc2F)CC1
< 20 µM | O=C(NC1CCN(CC(F)(F)F)CC1)c1n[nH]cc1NC(=O)c1c(F)cccc1F
< 20 µM | COc1ccccc1CNC(=O)c1n[nH]cc1NC(=O)c1c(F)cccc1F
< 20 µM | Cc1cc(CNC(=O)c2n[nH]cc2NC(=O)c2c(F)cccc2F)no1
< 20 µM | O=C(NCc1cccnc1)c1n[nH]cc1NC(=O)c1c(F)cccc1F
< 20 µM | CC(C)(C)N1CCC(NC(=O)c2n[nH]cc2NC(=O)c2c(F)cccc2F)CC1
< 20 µM | O=C(N[C@H]1CCCNC1)c1n[nH]cc1NC(=O)c1c(F)cccc1F
< 20 µM | COc1cccc(F)c1C(=O)Nc1c[nH]nc1C(=O)NC1CCNCC1
< 20 µM | COc1cccc(F)c1C(=O)Nc1c[nH]nc1C(=O)N[C@H]1CC[C@H](O)CC1
< 20 µM | NC[C@H]1CC[C@H](NC(=O)c2n[nH]cc2NC(=O)c2c(F)cccc2F)CC1
< 20 µM | O=C(NC1CCN(c2cccc(Cl)n2)CC1)c1n[nH]cc1NC(=O)c1c(F)cccc1F
< 20 µM | CC1CCC(NC(=O)c2n[nH]cc2NC(=O)c2c(F)cccc2F)CC1 (stereo unspecified)
< 20 µM | O=C(NC1CCN(CC2CCOC2)CC1)c1n[nH]cc1NC(=O)c1c(F)cccc1F (stereo unspecified)
< 20 µM | O=C(N[C@H]1CC[C@H](NC2CCOCC2)CC1)c1n[nH]cc1NC(=O)c1c(F)cccc1F
< 20 µM | O=C(N[C@H]1CC[C@H](N2CCS(=O)(=O)CC2)CC1)c1n[nH]cc1NC(=O)c1c(F)cccc1F
< 20 µM | O=C(N[C@H]1CC[C@H](O)CC1)c1n[nH]cc1NC(=O)c1c(F)cccc1F
< 20 µM | O=C(NCC1CCCO1)c1n[nH]cc1NC(=O)c1c(F)cccc1F (stereo unspecified)
< 20 µM | CN1CCN([C@H]2CC[C@@H](NC(=O)c3n[nH]cc3NC(=O)c3c(F)cccc3F)CC2)CC1
< 20 µM | O=C(N[C@H]1CC[C@H](N2CCOCC2)CC1)c1n[nH]cc1NC(=O)c1c(F)cccc1F
< 20 µM | CC(NC(=O)c1n[nH]cc1NC(=O)c1c(F)cccc1F)c1ccccc1 (stereo unspecified)
< 20 µM | N[C@H]1CC[C@H](NC(=O)c2n[nH]cc2NC(=O)c2c(F)cccc2F)CC1

IC50 | SMILES
< 20 µM | CN1CCC(NC(=O)c2n[nH]cc2NC(=O)c2c(F)cccc2Cl)CC1
< 20 µM | C[N+]1([O-])CCC(NC(=O)c2n[nH]cc2NC(=O)c2c(F)cccc2F)CC1 (stereo unspecified)
< 20 µM | COc1cccc(F)c1C(=O)Nc1c[nH]nc1C(=O)NC1CCC(C(C)(C)C)CC1 (stereo unspecified)
< 20 µM | COc1cccc(F)c1C(=O)Nc1c[nH]nc1C(=O)NC1CCN(C)CC1
< 20 µM | O=C(NCC1CCNCC1)c1n[nH]cc1NC(=O)c1c(F)cccc1F
< 20 µM | CS(=O)(=O)NC[C@H]1CC[C@H](NC(=O)c2n[nH]cc2NC(=O)c2c(F)cccc2F)CC1
< 20 µM | O=C(NCc1ccco1)c1n[nH]cc1NC(=O)c1c(F)cccc1F
< 20 µM | O=C1CC[C@H](NC(=O)c2n[nH]cc2NC(=O)c2c(F)cccc2F)CN1
< 20 µM | O=C(NCc1ccncc1)c1n[nH]cc1NC(=O)c1c(F)cccc1F
< 20 µM | O=C(NC1CCN(c2ncccn2)CC1)c1n[nH]cc1NC(=O)c1c(F)cccc1F
< 20 µM | O=C(NC1CCC(CO)CC1)c1n[nH]cc1NC(=O)c1c(F)cccc1F (stereo unspecified)
< 20 µM | O=C(NC1CCN(c2ccccn2)CC1)c1n[nH]cc1NC(=O)c1c(F)cccc1F
< 20 µM | Cc1nn(C)c(C)c1CNC(=O)c1n[nH]cc1NC(=O)c1c(F)cccc1F
< 20 µM | CS(=O)(=O)N1CCC(NC(=O)c2n[nH]cc2NC(=O)c2c(F)cccc2F)CC1
< 20 µM | O=C(NC1CCN(CC2CC2)CC1)c1n[nH]cc1NC(=O)c1c(F)cccc1F
< 20 µM | O=C(NC1CCC(N2CCSCC2)CC1)c1n[nH]cc1NC(=O)c1c(F)cccc1F (stereo unspecified)
< 20 µM | CN(C)[C@H]1CC[C@H](NC(=O)c2n[nH]cc2NC(=O)c2c(F)cccc2F)CC1
< 20 µM | COCCN1CCC(NC(=O)c2n[nH]cc2NC(=O)c2c(F)cccc2F)CC1
< 20 µM | O=C(NC1CCNCC1)c1n[nH]cc1NC(=O)c1c(F)cccc1Cl
< 20 µM | O=C(N[C@@H]1CCNC1)c1n[nH]cc1NC(=O)c1c(F)cccc1F
